For assay [1], the system named is EGR1. Put plainly: EGR1 protein western blot (whole cell lysates, nuclear fractions) in RAW 264.7 macrophages. Type of assay: cell-based, mouse. The following applies: macrophages (RAW 264.7); MEK inhibitor 10 μM; EMAP II 2 hours. On the procedure:
(§1) RAW 264.7 (ATCC) mouse macrophages and Human Embryonic Kidney (HEK) 293T cells were cultured in DMEM media with 10% fetal bovine serum […] and glutamine HEPES buffer and beta-mercaptoethanol were added to the growth medium used for RAW 264.7 macrophages. Primary human pulmonary artery smooth muscle cells (hPASMC) purchased from Lonza (Walkersville, Md.) were cultured in complete growth medium containing smooth muscle growth media-2 (SmGM-2) with 10% FBS and growth factors provided as a kit by the supplier (Lonza, (Walkersville, Md.). THP-1 human monocyte cells were cultured in RPMI 1640 with 10% FBS and glutamine Cells were cultured in a humidified atmosphere with 5% CO2 at 370 C. For all studies passages 5-14 were used for RAW 264.7 and passages 5-10 were used for hPASMCs. For treatment studies, subconfluent cells plated in multi-well plates were serum starved and if required, pretreated for with inhibitors before stimulating with 2 μg/mL recombinant EMAP II.
(§2) After appropriate treatments, protein lysates were prepared by using RIPA buffer supplemented with phosphatase and protease inhibitors (Thermo Fischer Scientific). Alpha-tubulin was used as a loading control. For nuclear and cytoplasmic fractionation, NE-PER kit from Thermo Fischer Scientific was used. Western blots were performed according to standard methods and quantified using densitometry using Image Studio Lite software from LI-COR Biosciences.
RAW 264.7 (ATCC) mouse macrophages and HEK-293T (ATCC) cells were cultured in DMEM media with 10% (v/v) fetal bovine serum (FBS) and 2 mM glutamine HEPES buffer and beta-mercaptoethanol were added to the growth medium used for RAW 264.7 macrophages. Primary human pulmonary artery smooth muscle cells (hPASMC) purchased from Lonza (Walkersville, Md.) were cultured in complete growth medium containing smooth muscle growth media-2 (SmGM-2) with 10% FBS and growth factors provided as a kit by the supplier (Lonza, (Walkersville, Md.). THP-1 human monocyte cells were cultured in RPMI 1640 with 10% FBS and glutamine Cells were cultured in a humidified atmosphere with 5% CO2 at 37° C. For all studies passages 5-14 were used for RAW 264.7 and passages 5-10 were used for hPASMCs. For treatment studies, subconfluent cells plated in multi-well plates were serum starved and if required, pretreated with inhibitors before stimulation with 2 μg/mL recombinant EMAP II.
After appropriate treatments, protein lysates were prepared by using RIPA buffer supplemented with phosphatase and protease inhibitors (Thermo Fisher Scientific). Alpha-tubulin was used as a loading control. […] Western blots were performed according to standard methods and quantified using densitometry using Image Studio Lite software from LI-COR Biosciences.
On the technique in general: Immunoblotting shows a protein as a band on a membrane.

For assay [2], the system named is EGR1. Description: EGR1 transcripts qRT-PCR in hPASMC. Type of assay: cell-based, human. The conditions noted are these: SMCs; 10 μM pretreatment; EMAP II 45 minutes; normalized against Gapdh. On the procedure:
(§3) RAW 264.7 (ATCC) mouse macrophages and Human Embryonic Kidney (HEK) 293T cells were cultured in DMEM media with 10% fetal bovine serum […] and glutamine HEPES buffer and beta-mercaptoethanol were added to the growth medium used for RAW 264.7 macrophages. […]
(§4) Total RNA was extracted with TriZol using standard RNA extraction protocol and reverse transcribed with SuperScript III Reverse Transcriptase (Thermo Fischer Scientific). SphK1, Tnf, Il6, EGR1, Gapdh, Hprt1 transcripts were quantified using PrimePCR SYBR Green assays from BioRad. […]
(§5) Total RNA was extracted with TriZol using standard RNA extraction protocol and reverse transcribed with SuperScript III Reverse Transcriptase (Thermo Fisher Scientific). SPHK1, Tnf, Il6, EGR1, Gapdh, Hprt1 transcripts were quantified using PrimePCR SYBR Green assays from BioRad.
In general terms: Quantitative PCR measures a nucleic acid by following its amplification.

Assay [3] deals with EGR1. Description: EGR1 protein western blot and immunofluorescence in hPASMC. Type of assay: cell-based, human. The following applies: SMCs (hPASMC); MEK inhibitor 10 μM; EMAP II 1 hour. On the procedure:
as §1, §2
Primary hPASMCs cells or human THP-1 macrophages were seeded in Nunc Lab-Tek™ II 4-well imaging plates (Thermo Fisher Scientific) chamber well slides and cultured in growth medium. After the serum starvation cells were stimulated with EMAP II. Treated cells were rinsed with PBS and fixed with 4% paraformaldehyde at room temperature for 15 min and permeabilized with 0.1% Triton X-100 at room temperature for 10 min After washing with PBS three times, the cells were incubated with EGR1, 1amin, or pSphK1 antibody at 40C overnight. The cells were then rinsed with PBS three times and subsequently incubated with respective secondary antibody conjugated with Alex Fluor 647 and 488 or Phalloidin 488 at room temperature for 1 h. The cells were rinsed with PBS three times and coverslips were mounted with SlowFade Gold Antifade Mountant with DAPI (Thermo Fischer Scientific) and the cells were examined under Olympus microscope with 40× for EGR1 expression and with 60× for pSphK1 water immersion.
Knockdown of endogenous EGR1 was carried out by transfecting with 25 nM final concentration of ON-TARGETplus siRNAs specific for EGR1 or non-targeting control purchased from GE Dharmacon (Lafayette,CO) using Viromer Blue (Lipocalyx) per manufacturer's instructions. Cells were stimulated with EMAP II 48 h post-transfection.
RAW 264.7 (ATCC) mouse macrophages and HEK-293T (ATCC) cells were cultured in DMEM media with 10% (v/v) fetal bovine serum (FBS) and 2 mM glutamine HEPES buffer and beta-mercaptoethanol were added to the growth medium used for RAW 264.7 macrophages. […]

Assay [4] has as its system EGR1. Description: EGR1 transcripts qRT-PCR in RAW 264.7 macrophages. It counts as cell-based, mouse. The conditions noted are these: 10 μM pretreatment, EMAP II 45 minutes, normalized against Hprt1. On the procedure:
as §3, §4, §5

Assay [5] deals with pSTAT3 (Y705). Description: EMAP II induced pSTAT3 western blot in RAW 264.7 macrophages. Type of assay: cell-based, mouse. The conditions noted are these: RAW 264.7 macrophages, EMAP II 24 hours. On the procedure:
as §2
After appropriate treatments, protein lysates were prepared by using RIPA buffer supplemented with phosphatase and protease inhibitors (Thermo Fisher Scientific). Alpha-tubulin was used as a loading control. For nuclear and cytoplasmic fractionation, NE-PER kit from Thermo Fischer Scientific was used. Western blots were performed according to standard methods and quantified using densitometry using Image Studio Lite software from LI-COR Biosciences.

The subject of assay [6] is STAT3 transcription reporter plasmid. Description: STAT3 transcription reporter luciferase assay in HEK293-T cells. The following applies: inhibitor pretreatment 1 hour, luciferase after 24 hours. Type of assay: cell-based, human. On the procedure: Transfection and luciferase assay. Human Embryonic Kidney (HEK) 293-T cells cultured in DMEM media containing 10% serum were reverse co-transfected with pGL4.47fluc2P/SIE/Hygrol and pGL4.74 [hRluc/TK] using Attractene Transfection Reagent (301005, Qiagen) as per manufacturer's protocol. Pretreated with inhibitors for 1 hour as required. After the treatment cells were incubated for 24 hours and luciferase activity was measured using Dual-Glo Luciferase Assay (E2920, Promega) per manufacturer's guidelines.
HEK 293-T cells cultured in DMEM media containing 10% serum were reverse co-transfected with pGL4.47fluc2P/SIE/Hygrol and pGL4.74 [hRluc/TK] using Attractene Transfection Reagent (301005, Qiagen) as per manufacturer's protocol. Pretreated with inhibitors for 1 hour as required. After the treatment cells were incubated for 24 hours and luciferase activity was measured using Dual-Glo Luciferase Assay (E2920, Promega) per manufacturer's guidelines.

SMILES strings stand for the structures.

With `CC(=O)Nc1cccc(-n2c(=O)n(C3CC3)c(=O)c3c(Nc4ccc(I)cc4F)n(C)c(=O)c(C)c32)c1` [iERK1, Trametinib, reference compound], the “EMAP II induced EGR1 protein expression” value in assay [1] and in assay [3] was “blocked” in each case. The “EMAP II induced EGR1 transcription” value in assay [2] and in assay [4] was “inhibited” in each case.

On to `O=C(NOCC1CC1)c1cc(Br)c(F)c(F)c1Nc1ccc(I)cc1Cl` [iERK, PD184161, reference compound], for which the “EMAP II induced EGR1 protein expression” value in assay [1] and in assay [3] was “blocked” throughout. Besides, in assay [5] (inhibitor pretreatment 10 μM), the “EMAP II induced pSTAT3 (pSTAT3/STAT3)” value is “significantly inhibited”.

Regarding `N#CC[C@H](C1CCCC1)n1cc(-c2ncnc3[nH]ccc23)cn1` [iJAK1/2, Ruxolitinib], in assay [5] (inhibitor pretreatment 1 μM), the “EMAP II induced pSTAT3 (pSTAT3/STAT3)” value is “significantly inhibited”.

Consider `CCCCCCc1cccc(NC(=O)[C@H](N)CCP(=O)(O)O)c1` [iS1PR1, W146], for which the “EMAP II induced pSTAT3 (pSTAT3/STAT3)” value in assay [5] (inhibitor pretreatment 1 μM) was “significantly inhibited”.

Regarding `Cc1nn(C)c2nc(NNC(=O)Nc3cc(Cl)nc(Cl)c3)cc(C(C)C)c12` [iS1PR2, JTE 013], in assay [5] (inhibitor pretreatment 1 μM), the “EMAP II induced pSTAT3 (pSTAT3/STAT3)” value is on record as “significantly inhibited”.

For the compound `CC(C)(C)C(=O)/C(=N/c1ccc(Cl)cc1)NNc1ccc(Cl)cc1` [iS1PR3, TY 52156], in assay [5] (inhibitor pretreatment 1 μM), the “EMAP II induced pSTAT3 (pSTAT3/STAT3)” value was “significantly inhibited”.

For `Cc1cc(CS(=O)(=O)c2ccccc2)cc(OCc2ccc(CN3CCC[C@@H]3CO)cc2)c1` [iSphK1, PF543], in assay [6], the “EMAP II induced luminescence of STAT3 transcription reporter plasmid” value was “significantly inhibited”. The “EMAP II induced pSTAT3 (pSTAT3/STAT3)” value was “significantly inhibited” in assay [5] (inhibitor pretreatment 100 nM); “inhibited” in assay [5] (inhibitor pretreatment 100 nM, listed as PF543); “significantly inhibited” in assay [5] (inhibitor pretreatment 100 nM, listed as iSPHK1).
